Data set [1] is described as follows: Compound stability in human liver microsomes. Conditions: pH 7.4; for half-life at 5 μM: human liver microsomes 0.5 mg protein/mL, compound 5 μM, NADPH, 37° C., read-out: Human T1/2; for CLint scaled at 5 μM: human liver microsomes, in vivo CLint extrapolated. The format is in vitro ADME. The procedure: (§1) Human or rat liver microsomes incubations were conducted in duplicate in polypropylene tubes. The typical incubation mixtures consisted of human or rat liver microsomes (0.5 mg protein/mL), compounds of interest (5 μM) and NADPH (1.0 mM) in a total volume of 200 μL potassium phosphate buffer (PBS, 100 mM, pH 7.4). Compounds were dissolved in DMSO and diluted with PBS such that the final concentration of DMSO was 0.05%. The enzymatic reactions were commenced with the addition of […] after a 3-min preincubation and incubated in a water bath open to the air at 37° C. Reactions were terminated at various time points (0, 5, 10, 15, 30, 60 min) by adding equal volume of ice-cold acetonitrile. The samples were stored at […] until LC/MS/MS assays.
(§2) The concentrations of compounds in the incubation mixtures of human or rat liver microsomes were determined by a LC/MS/MS method. The ranges of the linearity in the concentration range were determined for each tested compounds.
(§3) A parallel incubation was performed using denatured microsomes as the negative control, and reactions were terminated at various time points (0, 15, 60 min) after incubation at 37° C.
(§4) Dextromethorphan (70 μM) was selected as the positive control, and reactions were terminated at various time points (0, 5, 10, 15, 30, 60 min) after incubation at 37° C. Both positive and negative control samples were included in each assay to ensure the integrity of the microsomal incubation system.
(§5) The concentrations of compounds in human or rat liver microsome incubations were plotted as a percentage of the relevant zero time point control for each reaction. The in vivo CLint were extrapolated (ref.: Naritomi, Y.; Terashita, S.; Kimura, S.; Suzuki, A.; Kagayama, A.; and Sugiyama, Y.; Prediction of human hepatic clearance from in vivo animal experiments and in vitro metabolic studies with liver microsomes from animals and humans. Drug Metab. Dispos., 2001, 29: 1316-1324).

The nature of data set [2]: Compound stability in rat liver microsomes. The class given is in vitro ADME. The settings on record: pH 7.4; for half-life at 5 μM: rat liver microsomes 0.5 mg protein/mL, compound 5 μM, NADPH, 37° C., read-out: Rat T1/2; for CLint scaled at 5 μM: rat liver microsomes, in vivo CLint extrapolated. As to the method:
as §1, §2, §3, §4, §5

For data set [3], the target named is T1, JAK2 (h) (Homo sapiens, UniProt O60674).
T1 construct: purchased Millipore UK Ltd (assays run there as a service)
Kind of data set: JAK2 kinase assay. The class given is biochemical. The procedure: Kinase assays can be performed by measurement of incorporation of γ-^33P ATP into immobilized myelin basic protein (MBP). High binding white 384 well plates (Greiner) are coated with MBP (Sigma #M-1891) by incubation of 60 μL/well of 20 μg/mL MBP in Tris-buffered saline (TBS; 50 mM Tris pH 8.0, 138 mM NaCl, 2.7 mM KCl) for 24 h at 4° C. Plates are washed 3× with 100 μL TBS. Kinase reactions are carried out in a total volume of 34 μL in kinase buffer (5 mM Hepes pH 7.6, 15 mM NaCl, 0.01% bovine gamma globulin (Sigma #I-5506), 10 mM MgCl2, 1 mM DTT, 0.02% TritonX-100). Compound dilutions are performed in DMSO and added to assay wells to a final DMSO concentration of 1%. Each data point is measured in duplicate, and at least two duplicate assays are performed for each individual compound determination. Enzyme is added to final concentrations of 10 nM or 20 nM, for example. A mixture of unlabeled ATP and γ-^33P ATP is added to start the reaction (2×10^6 cpm of γ-^33P ATP per well (3000 Ci/mmole) and 10 μM unlabeled ATP, typically. The reactions are carried out for 1 h at room temperature with shaking Plates are washed 7× with TBS, followed by the addition of 50 μL/well scintillation fluid (Wallac). Plates are read using a Wallac Trilux counter. This is only one format of such assays; various other formats are possible, as known to one skilled in the art.
The above assay procedure can be used to determine the IC50 for inhibition and/or the inhibition constant, Ki. The IC50 is defined as the concentration of compound required to reduce the enzyme activity by 50% under the condition of the assay. The IC50 value is estimated by preparing a 10 point curve using a ½ log dilution series (for example, a typical curve may be prepared using the following compound concentrations: 3 μM, 1 μM, 0.3 μM, 0.1 μM, 0.03 μM, 0.01 μM, 0.003 μM, 0.001 μM, 0.0003 μM and 0 μM).
(specific activity approx. 500 cpm/pmol, concentration as required).
The kinase assays described herein were performed at Millipore UK Ltd, Dundee Technology Park, Dundee DD2 1SW, UK.

For two compounds, half-life, CLint scaled and IC50 results are on record in patent US9399637B2, “Substituted heteroaryl compounds and methods of use” (Calitor Sciences, LLC, priority 2014, dated 2016).

The structures appear in SMILES notation.

T1 sequence (O60674 whole entry): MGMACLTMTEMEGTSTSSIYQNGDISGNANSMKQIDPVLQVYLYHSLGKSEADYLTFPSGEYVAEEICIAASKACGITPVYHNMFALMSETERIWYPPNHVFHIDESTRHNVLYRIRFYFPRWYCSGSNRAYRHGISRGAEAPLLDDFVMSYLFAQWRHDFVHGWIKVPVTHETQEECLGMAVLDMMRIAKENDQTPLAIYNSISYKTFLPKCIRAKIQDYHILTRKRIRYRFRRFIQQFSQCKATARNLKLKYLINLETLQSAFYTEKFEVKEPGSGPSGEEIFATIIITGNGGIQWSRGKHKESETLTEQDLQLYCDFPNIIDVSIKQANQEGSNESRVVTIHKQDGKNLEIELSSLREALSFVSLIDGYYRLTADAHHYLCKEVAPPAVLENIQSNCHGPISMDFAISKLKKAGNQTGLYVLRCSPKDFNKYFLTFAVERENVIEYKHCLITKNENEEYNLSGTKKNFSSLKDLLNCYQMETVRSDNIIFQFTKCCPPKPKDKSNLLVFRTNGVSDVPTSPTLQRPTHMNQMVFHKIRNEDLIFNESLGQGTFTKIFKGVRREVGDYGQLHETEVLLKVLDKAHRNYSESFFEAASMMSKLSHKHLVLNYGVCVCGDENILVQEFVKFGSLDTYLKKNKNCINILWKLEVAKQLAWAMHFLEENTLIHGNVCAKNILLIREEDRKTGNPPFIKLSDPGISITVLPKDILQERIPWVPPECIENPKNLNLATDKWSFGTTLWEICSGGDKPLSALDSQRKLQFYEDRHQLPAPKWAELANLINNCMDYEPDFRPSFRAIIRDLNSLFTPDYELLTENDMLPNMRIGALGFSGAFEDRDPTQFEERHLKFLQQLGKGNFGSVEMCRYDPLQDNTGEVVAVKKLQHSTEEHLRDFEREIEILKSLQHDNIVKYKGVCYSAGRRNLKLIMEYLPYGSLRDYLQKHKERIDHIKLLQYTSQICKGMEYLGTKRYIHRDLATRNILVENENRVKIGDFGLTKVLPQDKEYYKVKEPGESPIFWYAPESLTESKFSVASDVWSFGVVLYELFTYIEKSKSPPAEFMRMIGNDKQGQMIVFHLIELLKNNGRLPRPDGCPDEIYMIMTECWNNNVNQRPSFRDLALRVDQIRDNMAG

As for `Cc1c2ccc(Nc3ncc(Cl)c(NC4CC5CN(C(=O)CC#N)CC5C4)n3)cc2nn1C` (stereo not shown) [Ex. 4, 3-(5-((5-chloro-2-((2,3-dimethyl-2H-indazol-6-yl)amino)pyrimidin-4-yl)amino)hexahydrocyclopenta[c]pyrrol-2(1H)-yl)-3-oxopropanenitrile], in data set [1], the half-life at 5 μM came out at 14.3 min and the CLint scaled at 5 μM was 122 mL/min/kg. Further, in data set [2], the half-life at 5 μM was determined as 25.3 min and the CLint scaled at 5 μM is 98.3 mL/min/kg. Besides, the 50% inhibitory concentration (IC50) in data set [3] is 9 nM.

In the case of `CC(=O)N1CCC2(CCC(Nc3nc(Nc4ccc5c(C)n(C)nc5c4)ncc3Cl)CC2)CC1` [Ex. 7, 1-(9-((5-chloro-2-((2,3-dimethyl-2H-indazol-6-yl)amino)pyrimidin-4-yl)amino)-3-azaspiro[5.5]undecan-3-yl)ethanone], in data set [1], the half-life at 5 μM was determined as 42.9 min and the CLint scaled at 5 μM was 40.5 mL/min/kg. Besides, in data set [2], the half-life at 5 μM amounted to 29.3 min and the CLint scaled at 5 μM was 84.8 mL/min/kg. Further, it took 2 nM to reach half-maximal inhibition in data set [3] (IC50).

The term CLint scaled denotes the capacity of the preparation to metabolise the compound, expressed as a volume cleared per time. For orientation: IC50 means the concentration needed to halve the response being measured. A low value points to greater potency in that assay.
